pIC50: −log10 of the molar value.
What was measured:
MCF-7 = assay: Cytotoxicity assay (SRB), MCF-7; type: cell-based; conditions: Homo sapiens, MCF7, 72 h, MCF-7 cells, SRB, three days; read-out: In Vitro Cellular Activity IC50 MCF-7
Method in brief: (§1)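 Cells were seeded overnight in RPMI 1640 with 5% FBS at 37 °C, 7% CO2 (12000/well BT474, 4000 HCT-116, 6000 LoVo, 6000 MCF-7), then exposed to compound dilutions for 3 days (6 days for BT474). Survival versus untreated controls was measured by TCA fixation and SRB staining at 540 nm.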

LoVo = assay: Cytotoxicity assay (SRB), LoVo; type: cell-based; conditions: Homo sapiens, LoVo, 72 h, LoVo cells, SRB, three days; read-out: In Vitro Cellular Activity IC50 LOVO
Method in brief: as §1

cyclin B/CDK1 enzyme = target: T1, cyclin B/CDK1 enzyme (Homo sapiens, UniProt P06493); assay: CDK1 ELISA kinase assay (phospho-Rb ser 795 detection); type: biochemical; conditions: In Vitro Enzyme Assays, read-out: CDK1 IC50
T1 construct: purchased New England BioLabs; host or cells: Sf9 insect cells, recombinant baculovirus
Method in brief: (§2)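 Screening was done at 10 ug/ml compound. Each partially purified cyclin/CDK complex, produced in baculovirus-infected Sf9 cells, phosphorylated a coated GST-Rb C-terminal fragment with 200 μM ATP, and Ser795 phosphorylation was quantified by HRP-ELISA at 450 nm.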

cyclin D1/cdk 4 enzyme = target: T2, cyclin D1/cdk 4 enzyme (Homo sapiens, UniProt P11802); assay: CDK4 ELISA kinase assay (phospho-Rb ser 795 detection); type: biochemical; conditions: In Vitro Enzyme Assays, 200 μM ATP, read-out: CDK4 IC50
T2 construct: made in house; host or cells: Sf9 insect cells, recombinant baculovirus
Method in brief: as §2

BT474 = assay: Cytotoxicity assay (SRB), BT474; type: cell-based; conditions: Homo sapiens, BT-474, 144 h, BT474 cells, SRB, 6 days; read-out: In Vitro Cellular Activity IC50 BT474
Method in brief: as §1

HCT-116 = assay: Cytotoxicity assay (SRB), HCT-116; type: cell-based; conditions: Homo sapiens, HCT-116, 72 h, HCT116 cells, SRB, three days; read-out: In Vitro Cellular Activity IC50 HCT116
Method in brief: as §1

cyclin E/CDK2 enzyme = target: T3, cyclin E/CDK2 enzyme (Homo sapiens, UniProt P24941); assay: CDK2 ELISA kinase assay (phospho-Rb ser 795 detection); type: biochemical; conditions: In Vitro Enzyme Assays, read-out: CDK2 IC50
T3 construct: made in house; host or cells: Sf9 insect cells, recombinant baculovirus
Method in brief: as §2

T2 sequence (P11802 whole entry, species assumed): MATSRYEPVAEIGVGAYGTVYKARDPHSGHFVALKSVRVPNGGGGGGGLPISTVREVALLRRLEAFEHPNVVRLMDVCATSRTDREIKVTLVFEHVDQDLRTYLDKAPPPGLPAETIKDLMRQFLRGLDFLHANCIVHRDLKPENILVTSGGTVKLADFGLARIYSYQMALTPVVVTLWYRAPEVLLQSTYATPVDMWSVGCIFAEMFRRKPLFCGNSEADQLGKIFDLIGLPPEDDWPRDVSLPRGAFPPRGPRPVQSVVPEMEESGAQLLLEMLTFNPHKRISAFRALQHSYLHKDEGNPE
T2 sequence (P24385 whole entry partner, species assumed): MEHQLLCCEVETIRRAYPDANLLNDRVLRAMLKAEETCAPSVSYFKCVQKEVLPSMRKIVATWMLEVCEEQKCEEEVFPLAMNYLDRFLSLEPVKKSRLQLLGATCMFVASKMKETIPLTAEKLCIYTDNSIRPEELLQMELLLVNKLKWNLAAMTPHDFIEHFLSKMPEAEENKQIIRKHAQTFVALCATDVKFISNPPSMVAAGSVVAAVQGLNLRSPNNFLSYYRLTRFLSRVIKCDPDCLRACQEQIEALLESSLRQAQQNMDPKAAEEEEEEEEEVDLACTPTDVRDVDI
T1 sequence (P06493 whole entry): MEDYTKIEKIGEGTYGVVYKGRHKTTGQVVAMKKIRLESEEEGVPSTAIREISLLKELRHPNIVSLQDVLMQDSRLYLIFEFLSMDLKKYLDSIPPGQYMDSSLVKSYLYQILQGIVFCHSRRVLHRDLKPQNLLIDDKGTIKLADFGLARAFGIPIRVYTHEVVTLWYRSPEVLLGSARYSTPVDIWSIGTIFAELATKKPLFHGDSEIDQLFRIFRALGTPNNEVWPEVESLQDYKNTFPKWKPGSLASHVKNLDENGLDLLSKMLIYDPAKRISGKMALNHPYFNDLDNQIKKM
T1 sequence (P14635 whole entry partner): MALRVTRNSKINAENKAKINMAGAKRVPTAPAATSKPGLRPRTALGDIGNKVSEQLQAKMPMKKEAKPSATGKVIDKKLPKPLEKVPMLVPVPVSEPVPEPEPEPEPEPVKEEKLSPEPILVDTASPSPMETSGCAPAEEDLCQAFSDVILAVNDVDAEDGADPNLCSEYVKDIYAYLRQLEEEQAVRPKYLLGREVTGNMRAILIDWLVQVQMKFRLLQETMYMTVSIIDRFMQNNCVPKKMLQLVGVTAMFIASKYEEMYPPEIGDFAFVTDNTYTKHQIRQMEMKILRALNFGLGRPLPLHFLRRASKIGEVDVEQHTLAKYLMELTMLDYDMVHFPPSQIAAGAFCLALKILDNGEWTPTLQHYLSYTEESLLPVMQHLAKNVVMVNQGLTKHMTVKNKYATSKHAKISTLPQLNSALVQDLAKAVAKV

Structure (SMILES)	pIC50 (MCF-7)	pIC50 (LoVo)	pIC50 (cyclin B/CDK1 enzyme)	melting point	pIC50 (cyclin D1/cdk 4 enzyme)	pIC50 (BT474)	pIC50 (HCT-116)	pIC50 (cyclin E/CDK2 enzyme)
CN1CCN(c2ccc(N/C=C3\C(=O)NC(=O)c4ccc(C#Cc5ccsc5)cc43)cc2)CC1 [Example 187, (4Z)-4-({[4-(4-Methylpiperazin-1-yl)phenyl]amino}methylene)-6-(thien-3-ylethynyl)-isoquinoline-1,3(2H,4H)-dione]	5.52	5.07	5.77	193 to 194 °C	5.64	5.54	5.96	5.48
CN1CCN(c2ccc(N/C=C3\C(=O)NC(=O)c4ccc(NS(=O)(=O)c5ccccc5)cc43)cc2)CC1 [Example 188, 1,2,3,4-Tetrahydroisoquinolin-6-yl]benzenesulfonamide′N-[(4Z)-4-({[4-(4-methylpiperazin-1-yl)phenyl]amino}methylene)-1,3-dioxo]	4.92	4.96	4.62	289 to 290 °C	4.48	5.48	5.66	4.40
CCCOc1ccc(CN/C=C2\C(=O)NC(=O)c3ccc(-c4ccc(F)cc4)cc32)cc1O [Example 192, (4Z)-6-(4-Fluorophenyl)-4-{[(3-hydroxy-4-propoxybenzyl)amino]methylene}-isoquinoline-1,3(2H,4H)-dione]	5.62	4.40	< 4.30	194 to 195 °C	7.40	4.80	5.17	< 4.30
COc1ccc(CN/C=C2\C(=O)NC(=O)c3ccc(NS(=O)(=O)c4ccccc4)cc32)cc1O [Example 196, N-((4Z)-4-{[(3-Hydroxy-4-methoxybenzyl)amino]methylene}-1,3-dioxo-1,2,3,4-′tetrahydroisoquinolin-6-yl)benzenesulfonamide]	4.42	4.43	< 4.30	245 to 246 °C	5.96	4.43	4.46	4.39
CC1CN(c2ccc(N/C=C3\C(=O)NC(=O)c4ccc(Br)cc43)cc2)CC(C)N1 (stereo not shown) [Example 201]	5.77	5.85	< 4.30	229 to 230 °C	5.39	5.85	5.96	< 4.30
CN1CCN(NC(=O)Nc2ccc(N/C=C3\C(=O)NC(=O)c4ccc(Br)cc43)cc2)CC1 [Example 217, N-(4-{[(Z)-(6-Bromo-1,3-dioxo-2,3-dihydroisoquinolin-4(1H)-′ylidene)methyl]amino}phenyl)-N′-(4-methylpiperazin-1-yl)urea]	5.13	5.32	4.50	270 to 271 °C	4.86	5.48	5.59	< 4.30
O=C1NC(=O)c2ccc(Br)cc2/C1=C/NCc1ccc(NC(=O)C(F)(F)F)c(O)c1 [Example 218, N-[4-({[(Z)-(6-Bromo-1,3-dioxo-2,3-dihydroisoquinolin-4(1H)-′ylidene)methyl]amino}methyl)-2-hydroxyphenyl]-2,2,2-trifluoroacetamide]	4.72	5.35	< 4.30	278 to 279 °C	6.82	5.59	5.48	< 4.30
O=C1NC(=O)c2ccc(Br)cc2/C1=C/NCc1ccc(OCC2CC2)c(O)c1 [Example 219, (4Z)-6-Bromo-4-({[4-(cyclopropylmethoxy)-3-′hydroxybenzyl]amino}methylene)isoquinoline-1,3(2H,4H)-dione]	4.49	5.16	< 4.30	210 to 211 °C	6.57	5.72	5.55	< 4.30
CN1CCN(c2ccc(N/C=C3\C(=O)N(CO)C(=O)c4ccc(Br)cc43)cc2)CC1 [Example 220, (4Z)-6-Bromo-2-(hydroxymethyl)-4-({[4-(4-methylpiperazin-1-yl)phenyl]amino}methylene)isoquinoline-1,3(2H,4H)-dione]	5.62	5.42	< 4.30	141 to 142 °C	5.48	5.48	5.49	< 4.30
Cc1ccc(C)n1-c1ccc2c(c1)/C(=C/Nc1ccc(N3CCN(C)CC3)cc1)C(=O)NC2=O [Example 226, (4Z)-6-(2,5-Dimethyl-1H-pyrrol-1-yl)-4-({[4-(4-methylpiperazin-1-′yl)phenyl]amino}methylene)isoquinoline-1,3(2H,4H)-dione]	5.28	5.36	< 4.30	264 to 265 °C	6.40	5.48	5.62	5.62
CCCOc1ccc(CN/C=C2\C(=O)N(O)C(=O)c3ccccc32)cc1O [Example 230, 2-Hydroxy-4-[(3-hydroxy-4-propoxy-benzylamino)-methylene]-4H-isoquinoline-1,3-dione]	5.51	5.42	< 4.30	176 to 178 °C	4.56	5.19	5.68	4.42
CN1CCN(c2ccc(N/C=C3\C(=O)NC(=O)c4ccc(I)cc43)cn2)CC1 [Example 237, (4Z)-6-Iodo-4-({[6-(4-methylpiperazin-1-yl)pyridin-3-′yl]amino}methylene)isoquinoline-1,3(2H,4H)-dione]	5.40	5.13	4.49	189 to 190 °C	6.36	5.49	5.59	4.65
CN1CCC(c2ccc(N/C=C3\C(=O)NC(=O)c4ccc(I)cc43)cc2)CC1 [Example 239, (4Z)-6-Iodo-4-({[4-(1-methylpiperidin-4-yl)phenyl]amino}methylene)isoquinoline-1,3(2H,4H)-dione]	5.40	5.11	< 4.30	215 to 216 °C	6.51	5.10	5.60	5.38
C[C@@H]1CN(c2ccc(N/C=C3\C(=O)NC(=O)c4ccc(Br)cc43)cc2)C[C@H](C)N1C [Example 240, (4Z)-6-Bromo-4-[({4-[(3R,5S)-3,4,5-trimethylpiperazin-1-yl]phenyl}amino)methylene]-isoquinoline-1,3(2H,4H)-dione]	5.70	5.43	< 4.30	213 to 214 °C	4.76	5.51	5.57	< 4.30

Reference: patent publication US7713994B2 (Wyeth LLC, priority 2005, dated 2010)
